# What was measured:
# [1] = DHA-EE distribution after single periorbital skin administration; type: in vivo, Bama minipigs
# Protocol: In this example, 6174 μg/eye of docohexaenoic acid ethyl ester (DHA-EE) was applied to the periorbital skin of a left eye of a Bama minipig. […] 21099.7 ng/g of tissue and 21336.3 ng/g of tissue of DHA was measured in the left and right halves of the brain, respectively. […] The average amount of DHA present in the brain 3 hours post-dosage was 21218 ng/g.
# Given that the average Bama pig brain weighs around 60 g, the amount of DHA delivered to the brain can be estimated to be 27,600 ng or 27.6 μg. Therefore, the percentage of administered dose=27.6 μg delivered to brain/6174 μg dosed=0.45% of DHA topically administered to the pig via periorbital administration was delivered to the brain. As a comparison, only about 0.025% of DHA that is orally administered is delivered to the brain or CNS.
# [2] = Baseline endogenous levels of DHA, DHA-EE and JV-DE1; type: in vivo; conditions: undosed Bama minipigs
# Protocol: Endogenous levels were measured in the plasma, cerebrospinal fluid, ocular tissues (retina, optic nerve, ocular muscles), and brain. The endogenous levels DHA are not attributable to NIODP administration of DHA, DHA-EE, or JV-DE1. The baseline data collected in Table 4 was taken from the same lot of pigs, from the same vendor, as the information collected in Tables 5-7.
# [3] = 0 h, DHA-EE 6174 μg to periorbital skin of left eye
# [4] = 1 h, DHA-EE 6174 μg to periorbital skin of left eye
# [5] = 3 h, DHA-EE 6174 μg to periorbital skin of left eye
structure (smiles),measurement,setting,value
"CC/C=C\C/C=C\C/C=C\C/C=C\C/C=C\C/C=C\CCC(=O)OCC [DHA-EE, Docosahexaenoic acid ethyl ester]","Drug Concentration in Plasma, analyte DHA",[1]; [3],BLQ
same,"Drug Concentration in Plasma, analyte DHA-EE",[1]; [3],BLQ
same,"Drug Concentration in Plasma, analyte DHA",[1]; [4],BLQ
same,"Drug Concentration in Plasma, analyte DHA-EE",[1]; [4],BLQ
same,Percentage of administered dose delivered to the brain (as DHA),"[1]; 3 h, DHA-EE 6174 μg periorbital, whole brain estimate",0.45%
same,"Analyte DHA, % of administered dose: Cerebrospinal fluid",[1]; [5],0%
same,"Analyte DHA, % of administered dose: brain-left",[1]; [5],0.332%
same,"Analyte DHA, % of administered dose: brain-right",[1]; [5],0.562%
same,"Analyte DHA, % of administered dose: inferior rectus muscle-left",[1]; [5],0.008%
same,"Analyte DHA, % of administered dose: inferior rectus muscle-right",[1]; [5],0.009%
same,"Analyte DHA, % of administered dose: lateral rectus muscle-left",[1]; [5],0.004%
same,"Analyte DHA, % of administered dose: lateral rectus muscle-right",[1]; [5],0.010%
same,"Analyte DHA, % of administered dose: medial rectus muscle-left",[1]; [5],0.020%
same,"Analyte DHA, % of administered dose: medial rectus muscle-right",[1]; [5],0.016%
same,"Analyte DHA, % of administered dose: optic nerve-left",[1]; [5],0.011%
same,"Analyte DHA, % of administered dose: optic nerve-right",[1]; [5],0.031%
same,"Analyte DHA, % of administered dose: retina-left",[1]; [5],0.130%
same,"Analyte DHA, % of administered dose: retina-right",[1]; [5],0.110%
same,"Analyte DHA, % of administered dose: superior rectus muscle-left",[1]; [5],0.043%
same,"Analyte DHA, % of administered dose: superior rectus muscle-right",[1]; [5],0.005%
same,"Analyte DHA, Concentration in Tissue: Cerebrospinal fluid",[1]; [5],0 ng/g
same,"Analyte DHA, Concentration in Tissue: brain-left",[1]; [5],21099.7 ng/g
same,"Analyte DHA, Concentration in Tissue: brain-right",[1]; [5],21336.3 ng/g
same,"Analyte DHA, Concentration in Tissue: inferior rectus muscle-left",[1]; [5],3161.1 ng/g
same,"Analyte DHA, Concentration in Tissue: inferior rectus muscle-right",[1]; [5],1287.8 ng/g
same,"Analyte DHA, Concentration in Tissue: lateral rectus muscle-left",[1]; [5],1356.3 ng/g
same,"Analyte DHA, Concentration in Tissue: lateral rectus muscle-right",[1]; [5],1085.6 ng/g
same,"Analyte DHA, Concentration in Tissue: medial rectus muscle-left",[1]; [5],4874.6 ng/g
same,"Analyte DHA, Concentration in Tissue: medial rectus muscle-right",[1]; [5],1690.7 ng/g
same,"Analyte DHA, Concentration in Tissue: optic nerve-left",[1]; [5],8794.6 ng/g
same,"Analyte DHA, Concentration in Tissue: optic nerve-right",[1]; [5],8839.4 ng/g
same,"Analyte DHA, Concentration in Tissue: retina-left",[1]; [5],48882.9 ng/g
same,"Analyte DHA, Concentration in Tissue: retina-right",[1]; [5],41629.4 ng/g
same,"Analyte DHA, Concentration in Tissue: superior rectus muscle-left",[1]; [5],10400.7 ng/g
same,"Analyte DHA, Concentration in Tissue: superior rectus muscle-right",[1]; [5],743.6 ng/g
same,"Analyte DHA-EE, % of administered dose: Cerebrospinal fluid",[1]; [5],0%
same,"Analyte DHA-EE, % of administered dose: brain-left",[1]; [5],0%
same,"Analyte DHA-EE, % of administered dose: brain-right",[1]; [5],0%
same,"Analyte DHA-EE, % of administered dose: inferior rectus muscle-left",[1]; [5],0.02%
same,"Analyte DHA-EE, % of administered dose: inferior rectus muscle-right",[1]; [5],0%
same,"Analyte DHA-EE, % of administered dose: lateral rectus muscle-left",[1]; [5],0.003%
same,"Analyte DHA-EE, % of administered dose: lateral rectus muscle-right",[1]; [5],0%
same,"Analyte DHA-EE, % of administered dose: medial rectus muscle-left",[1]; [5],0.02%
same,"Analyte DHA-EE, % of administered dose: medial rectus muscle-right",[1]; [5],0%
same,"Analyte DHA-EE, % of administered dose: optic nerve-left",[1]; [5],0%
same,"Analyte DHA-EE, % of administered dose: optic nerve-right",[1]; [5],0%
same,"Analyte DHA-EE, % of administered dose: retina-left",[1]; [5],0%
same,"Analyte DHA-EE, % of administered dose: retina-right",[1]; [5],0%
same,"Analyte DHA-EE, % of administered dose: superior rectus muscle-left",[1]; [5],0.04%
same,"Analyte DHA-EE, % of administered dose: superior rectus muscle-right",[1]; [5],0%
same,"Analyte DHA-EE, Concentration in Tissue: Cerebrospinal fluid",[1]; [5],0 ng/g
same,"Analyte DHA-EE, Concentration in Tissue: brain-left",[1]; [5],0 ng/g
same,"Analyte DHA-EE, Concentration in Tissue: brain-right",[1]; [5],0 ng/g
same,"Analyte DHA-EE, Concentration in Tissue: inferior rectus muscle-left",[1]; [5],7444.8 ng/g
same,"Analyte DHA-EE, Concentration in Tissue: inferior rectus muscle-right",[1]; [5],0 ng/g
same,"Analyte DHA-EE, Concentration in Tissue: lateral rectus muscle-left",[1]; [5],995.7 ng/g
same,"Analyte DHA-EE, Concentration in Tissue: lateral rectus muscle-right",[1]; [5],0 ng/g
same,"Analyte DHA-EE, Concentration in Tissue: medial rectus muscle-left",[1]; [5],7382.3 ng/g
same,"Analyte DHA-EE, Concentration in Tissue: medial rectus muscle-right",[1]; [5],0 ng/g
same,"Analyte DHA-EE, Concentration in Tissue: optic nerve-left",[1]; [5],0 ng/g
same,"Analyte DHA-EE, Concentration in Tissue: retina-left",[1]; [5],0 ng/g
same,"Analyte DHA-EE, Concentration in Tissue: retina-right",[1]; [5],0 ng/g
same,"Analyte DHA-EE, Concentration in Tissue: superior rectus muscle-left",[1]; [5],12844.5 ng/g
same,"Analyte DHA-EE, Concentration in Tissue: superior rectus muscle-right",[1]; [5],0 ng/g
same,Average DHA present in the brain,[1]; [5],21218 ng/g
same,DHA-EE in ocular muscles of the dosed eye,[1]; [5],detectable
same,DHA-EE measured in the brain,[1]; [5],no DHA-EE was measured in the brain
same,"Drug Concentration in Plasma, analyte DHA",[1]; [5],BLQ
same,"Drug Concentration in Plasma, analyte DHA-EE",[1]; [5],BLQ
same,Baseline endogenous concentration in brain,[2],BLQ
same,Baseline endogenous concentration in cerebrospinal fluid,[2],BLQ
same,"Baseline endogenous concentration in eye tissue homogenate including (Retina, optic nerve, ocular muscle)",[2],BLQ
same,Baseline endogenous concentration in plasma,[2],BLQ
